Literature values as cited in patent US20240293600A1, “COMPOSITIONS, METHODS, AND DEVICES FOR SUSTAINED RELEASE OF AN AGENT” (Board of Supervisors of Louisiana State University and …, priority 2021, published 2024).

O=c1c(O)c(-c2ccc(O)c(O)c2)oc2cc(O)cc(O)c12 [Quercetin, 2-(3,4-dihydroxyphenyl)-3,5,7-trihydroxy-4H-1-benzopyran-4-one]
solubility in water: practically insoluble in water
